Assay results published in patent US20130123460A1, “PEPTIDE FOR IMPROVING BIOSTABILITY OF BIOACTIVE SUBSTANCE, AND BIOACTIVE SUBSTANCE HAVING IMPROVED BIOSTABILITY” (priority 2010, published 2013).
Entries after “also recorded” stand apart in the source; their conditions may differ. Where two headings read alike, the source gives them in different places. Bridges are numbered along the chain shown (N, C = ends). Where no end group is shown, it is not given here.

Tests used:
[1] = Plasma stability of amylin complex (remaining rate in rat plasma); assay type: in vitro ADME, SD rats; settings: for remaining at 0.5 h, 0.5 μmol/L / remaining at 2 h, 0.5 μmol/L / remaining at 8 h, 0.5 μmol/L: SD
Method: Evaluation was performed in a manner in which after the treatment of the amylin or amylin peptide complex with plasma for a pre-determined time, an amount of change of the amylin peptide (complex) undecomposed was measured by an HPLC/MS.

[2] = molecular target: T1, endogenous GLP-1 receptor (Mus musculus, UniProt O35659); test: Insulin secretion capacity of GLP-1 peptide complex in MIN 6 cells;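 on all read-outs here: insulin released into the supernatant of MIN 6 cultures quantified by ELISA, absorbance read at 450 nm with 620 nm reference after substrate addition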; assay type: cell-based; settings: for Insulin secretion capacity (% of control): 1000 pM, control = native GLP-1 at 1000 pM; for Insulin secretion capacity (activity) compared with native GLP-1, in words: MIN 6 cells, 30, 100, 300 or 1000 pM (FIG. 2, FIG. 3)
T1 construct: expressing an endogenous GLP-1 receptor; endogenous in cells; host or cells: MIN 6 mouse insulinoma cells (obtained from a person)
T1 sequence (O35659 22-463): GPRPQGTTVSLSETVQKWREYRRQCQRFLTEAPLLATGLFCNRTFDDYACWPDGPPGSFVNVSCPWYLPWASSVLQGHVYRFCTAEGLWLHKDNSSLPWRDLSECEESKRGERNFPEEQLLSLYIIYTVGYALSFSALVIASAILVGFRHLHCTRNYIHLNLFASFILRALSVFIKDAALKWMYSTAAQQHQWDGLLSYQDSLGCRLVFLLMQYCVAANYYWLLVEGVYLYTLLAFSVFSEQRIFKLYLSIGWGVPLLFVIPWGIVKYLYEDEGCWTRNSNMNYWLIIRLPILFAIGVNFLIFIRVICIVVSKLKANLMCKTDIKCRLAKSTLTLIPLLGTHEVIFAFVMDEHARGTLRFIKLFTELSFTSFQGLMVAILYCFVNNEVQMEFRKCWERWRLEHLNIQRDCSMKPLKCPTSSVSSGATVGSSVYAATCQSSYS
Method: MIN 6 was seeded on a multi-plate, which was cultivated at 37° C. for 48 hours. After that, the culture was washed twice with a KRH buffer solution including 2 mM glucose solution (including NaCl 119 mM, KCl 4.74 mM, CaCl2 2.54 mM, MgCl2 1.19 mM, KH2PO4 1.19 mM, 10 mM HEPES buffer solution pH7.3, and 0.1% BSA), and then it was incubated at 37° C. for one hour. […] A supernatant thereof was recovered, and an amount of insulin secreted was measured. The measurement of the insulin was performed in an enzyme-linked immunosorbent assay (ELISA), and an absorbance was measured at 450 nm (a sub-wavelength: 620 nm) after the addition of a substrate.
EC50 values thereof were calculated in the same manner as in Part 2, and the influence on the bioactivity caused by the addition of the partial peptide of the GA module were inspected in detail.
The analysis was performed using the following calculation formula.

[3] = Plasma stability of GLP-1 peptide complex (remaining rate in rat plasma, HPLC/MS); assay type: in vitro ADME, SD rats; settings: for remaining at 48 h, 0.5 μmol/L / remaining at 8 h, 0.5 μmol/L: SD
Source text: SD rats were anesthetized with diethyl ether, whole blood was collected and a plasma fraction was separated therefrom.

[4] = rat plasma, 0.5 μmol/L, 37° C., 48 hours, relative to 0 hour = 100%, read-out: Remaining rate in plasma after 48 hours (%)
[5] = rat plasma, 0.5 μmol/L, 37° C., 48 hours, relative to 0 hour = 100%

CC[C@H](C)[C@H](NC(=O)[C@H](C)NC(=O)CNC(=O)[C@H](Cc1ccccc1)NC(=O)[C@H](CC(N)=O)NC(=O)[C@H](CC(N)=O)NC(=O)[C@H](CO)NC(=O)[C@H](CO)NC(=O)[C@H](Cc1c[nH]cn1)NC(=O)[C@@H](NC(=O)[C@H](CC(C)C)NC(=O)[C@H](Cc1ccccc1)NC(=O)[C@H](CC(N)=O)NC(=O)[C@H](C)NC(=O)[C@H](CC(C)C)NC(=O)[C@H](CCCNC(=N)N)NC(=O)[C@H](CCC(N)=O)NC(=O)[C@@H](NC(=O)[C@H](C)NC(=O)[C@@H]1CSSC[C@H](NC(=O)[C@@H](N)CCCCN)C(=O)N[C@@H](CC(N)=O)C(=O)N[C@@H]([C@@H](C)O)C(=O)N[C@@H](C)C(=O)N[C@@H]([C@@H](C)O)C(=O)N1)[C@@H](C)O)C(C)C)C(=O)N[C@@H](CC(C)C)C(=O)N[C@@H](CO)C(=O)N[C@@H](CO)C(=O)N[C@H](C(=O)N[C@@H](CC(N)=O)C(=O)N[C@H](C(=O)NCC(=O)N[C@@H](CO)C(=O)N[C@@H](CC(N)=O)C(=O)N[C@H](C(=O)N[C@@H](Cc1ccc(O)cc1)C(N)=O)[C@@H](C)O)C(C)C)[C@@H](C)O [Comparative Example 16, Amylin(1-37)-NH2]
remaining at 0.5 h, 0.5 μmol/L ([1]; amylin, rat plasma, 0.5 μmol/L, 37° C., 0.5 hour, read-out: Remaining rate in plasma after 0.5 hour (%)): 43% | remaining at 2 h, 0.5 μmol/L ([1]; amylin, rat plasma, 0.5 μmol/L, 37° C., 2 hours, read-out: Remaining rate in plasma after 2 hours (%)): 15% | remaining at 8 h, 0.5 μmol/L ([1]; amylin, rat plasma, 0.5 μmol/L, 37° C., 8 hours, read-out: Remaining rate in plasma after 8 hours (%)): 0% | Remaining rate in plasma after 2 hours (%) ([1]; amylin, rat plasma, 0.5 μmol/L, 37° C., 2 hours): 15%

CC[C@H](C)[C@H](NC(=O)[C@H](Cc1ccccc1)NC(=O)[C@H](CCC(=O)O)NC(=O)[C@H](CCCCN)NC(=O)[C@H](C)NC(=O)[C@H](C)NC(=O)[C@H](CCC(N)=O)NC(=O)CNC(=O)[C@H](CCC(=O)O)NC(=O)[C@H](CC(C)C)NC(=O)[C@H](Cc1ccc(O)cc1)NC(=O)[C@H](CO)NC(=O)[C@H](CO)NC(=O)[C@@H](NC(=O)[C@H](CC(=O)O)NC(=O)[C@H](CO)NC(=O)[C@@H](NC(=O)[C@H](Cc1ccccc1)NC(=O)[C@@H](NC(=O)CNC(=O)[C@H](CCC(=O)O)NC(=O)[C@H](CO)NC(=O)[C@@H](N)Cc1c[nH]cn1)[C@@H](C)O)[C@@H](C)O)C(C)C)C(=O)N[C@@H](C)C(=O)N[C@@H](Cc1c[nH]c2ccccc12)C(=O)N[C@@H](CC(C)C)C(=O)N[C@H](C(=O)N[C@@H](CCCCN)C(=O)NCC(=O)N[C@@H](CC(C)C)C(=O)N[C@H](C(=O)N[C@@H](CC(=O)O)C(=O)N[C@@H](CCC(=O)O)C(=O)N[C@H](C(=O)N[C@@H](CC(C)C)C(=O)N[C@@H](C)C(=O)N[C@@H](C)C(=O)O)[C@@H](C)CC)[C@@H](C)CC)C(C)C [Example 20, [Ser8]-GLP-1(7-35)-GAm(37-44)]
Insulin secretion capacity (% of control) ([2]; MIN 6 cells, 15 mM glucose): 98% | remaining at 48 h, 0.5 μmol/L [3, 4]: 79% | Remaining rate in plasma after 8 hours (%) ([3]; rat plasma, 0.5 μmol/L, 37° C., 8 hours, relative to 0 hour = 100%): 125%

AKTVEGVKALIDEILAAKCNTATCATQRLANFLVHSSNNFGAILSSTNVGSNTY-NH2 (disulfide 19-24) [Example 30, GAm(28-44)-Amylin(1-37)-NH2]
remaining at 0.5 h, 0.5 μmol/L ([1]; rat, plasma): 88% | remaining at 2 h, 0.5 μmol/L ([1]; rat, plasma): 67% | remaining at 8 h, 0.5 μmol/L ([1]; rat, plasma): 9%

HAEGTFTSDVSSYLEGQAAKEFIAWLVKGGPKALIDEILAA-NH2 [Example 21, GLP-1(7-35)-Gly-Pro-GAm(35-44)-NH2]
Insulin secretion capacity (% of control) ([2]; MIN 6 cells, 15 mM glucose): 103% | remaining at 8 h, 0.5 μmol/L ([3]; rat, plasma): 86% | remaining at 48 h, 0.5 μmol/L ([3]; rat, plasma): 53%

HAEGTFTSDVSSYLEGQAAKEFIAWLVKGGPSGVKALIDEILAA-NH2 [Example 24, GLP-1(7-35)-Gly-Pro-Ser-GAm(33-44)-NH2]
Insulin secretion capacity (% of control) ([2]; MIN 6 cells, 15 mM glucose): 123% | remaining at 8 h, 0.5 μmol/L ([3]; rat, plasma): 90% | remaining at 48 h, 0.5 μmol/L ([3]; rat, plasma): 40%

HAEGTFTSDVSSYLEGQAAKEFIAWLVKGGPVKALIDEILAA-NH2 [Example 22, GLP-1(7-35)-Gly-Pro-GAm(34-44)-NH2]
Insulin secretion capacity (% of control) ([2]; MIN 6 cells, 15 mM glucose): 99% | remaining at 8 h, 0.5 μmol/L ([3]; rat, plasma): 98% | remaining at 48 h, 0.5 μmol/L ([3]; rat, plasma): 94%

HAEGTFTSDVSSYLEGQAAKEFIAWLVKGGVKALIDEILA-NH2 [Example 7, GLP-1(7-35)-GAm(33-43)-NH2]
Insulin secretion capacity (% of control) ([2]; MIN 6 cells, 15 mM glucose): 105% | remaining at 8 h, 0.5 μmol/L ([3]; rat, plasma): 94% | remaining at 48 h, 0.5 μmol/L ([3]; rat, plasma): 87%

HSEGTFTSDVSSYLEGQAAKEFIAWLVKGAKTVEGVKALIDEIL-NH2 [Example 13, [Ser8]-GLP-1(7-35)-GAm(28-42)-NH2]
Insulin secretion capacity (% of control) ([2]; MIN 6 cells, 15 mM glucose): 105% | remaining at 8 h, 0.5 μmol/L ([3]; rat, plasma): 88% | remaining at 48 h, 0.5 μmol/L ([3]; rat, plasma): 87%

HSEGTFTSDVSSYLEGQAAKEFIAWLVKGAKTVEGVKALIDEILAA [Example 18, [Ser8]-GLP-1(7-35)-GAm(28-44)]
Insulin secretion capacity (% of control) ([2]; MIN 6 cells, 15 mM glucose): 139% | remaining at 8 h, 0.5 μmol/L ([3]; rat, plasma): 99% | remaining at 48 h, 0.5 μmol/L ([3]; rat, plasma): 88%

HSEGTFTSDVSSYLEGQAAKEFIAWLVKGGVKALIDEILAA [Example 19, [Ser8]-GLP-1(7-35)-GAm(33-44)]
Insulin secretion capacity (% of control) ([2]; MIN 6 cells, 15 mM glucose): 89% | remaining at 8 h, 0.5 μmol/L ([3]; rat, plasma): 114% | remaining at 48 h, 0.5 μmol/L ([3]; rat, plasma): 102%

HSEGTFTSDVSSYLEGQAAKEFIAWLVKGGVKALIDEILAA-NH2 [Example 9, [Ser8]-GLP-1(7-35)-GAm(33-44)-NH2]
Insulin secretion capacity (% of control) ([2]; MIN 6 cells, 15 mM glucose): 118% | remaining at 8 h, 0.5 μmol/L ([3]; rat, plasma): 104% | remaining at 48 h, 0.5 μmol/L ([3]; rat, plasma): 93%

HSEGTFTSDVSSYLEGQAAKEFIAWLVKGINNAKTVEGVKALIDEILAALP-NH2 [Example 16, [Ser8]-GLP-1(7-35)-GAm(25-46)-NH2]
Insulin secretion capacity (% of control) ([2]; MIN 6 cells, 15 mM glucose): 104% | remaining at 8 h, 0.5 μmol/L ([3]; rat, plasma): 102% | remaining at 48 h, 0.5 μmol/L ([3]; rat, plasma): 93%

HSEGTFTSDVSSYLEGQAAKEFIAWLVKGKALIDEILAA-NH2 [Example 4, [Ser8]-GLP-1(7-35)-GAm(35-44)-NH2]
Insulin secretion capacity (% of control) ([2]; MIN 6 cells, 15 mM glucose): 115% | remaining at 8 h, 0.5 μmol/L ([3]; rat, plasma): 77% | remaining at 48 h, 0.5 μmol/L ([3]; rat, plasma): 117%

HSEGTFTSDVSSYLEGQAAKEFIAWLVKGNAKTVEGVKALIDEILAALP-NH2 [Example 15, [Ser8]-GLP-1(7-35)-GAm(27-46)-NH2]
Insulin secretion capacity (% of control) ([2]; MIN 6 cells, 15 mM glucose): 106% | remaining at 8 h, 0.5 μmol/L ([3]; rat, plasma): 111% | remaining at 48 h, 0.5 μmol/L ([3]; rat, plasma): 93%

HSEGTFTSDVSSYLEGQAAKEFIAWLVKGTVEGVKALIDEIL-NH2 [Example 12, [Ser8]-GLP-1(7-35)-GAm(30-42)-NH2]
Insulin secretion capacity (% of control) ([2]; MIN 6 cells, 15 mM glucose): 85% | remaining at 8 h, 0.5 μmol/L ([3]; rat, plasma): 105% | remaining at 48 h, 0.5 μmol/L ([3]; rat, plasma): 116%

HSEGTFTSDVSSYLEGQAAKEFIAWLVKGVEGVKALIDEILAA-NH2 [Example 11, [Ser8]-GLP-1(7-35)-GAm(31-44)-NH2]
Insulin secretion capacity (% of control) ([2]; MIN 6 cells, 15 mM glucose): 83% | remaining at 8 h, 0.5 μmol/L ([3]; rat, plasma): 99% | remaining at 48 h, 0.5 μmol/L ([3]; rat, plasma): 92%

HSEGTFTSDVSSYLEGQAAKEFIAWLVKGVSDYYKNLINNAKTVEGVKALIDEILAALP-NH2 [Comparative Example 5, [Ser8]-GLP-1(7-35)-GAm(17-46)-NH2, reference compound]
EC50 [2]: > 1 nM | Insulin secretion capacity (activity) compared with native GLP-1, in words [2]: hardly detected; also recorded: remarkably decreased | remaining at 8 h, 0.5 μmol/L ([3]; rat plasma, 0.5 μmol/L, 37° C., 8 hours, relative to 0 hour = 100%, read-out: Remaining rate in plasma after 8 hours (%)): 105% | remaining at 48 h, 0.5 μmol/L [3, 4]: 105% | Remaining rate in plasma after 48 hours (%) [3, 5]: 105%

HSEGTFTSDVSSYLEGQAAKEFIAWLVKGYKNLINNAKTVEGVKALIDEILAALP-NH2 [Comparative Example 6, [Ser8]-GLP-1(7-35)-GAm(21-46)-NH2, reference compound]
Insulin secretion capacity (% of control) ([2]; MIN 6 cells, 15 mM glucose): 45% | remaining at 48 h, 0.5 μmol/L ([3]; rat, plasma): 84%

[Ser8]-GLP-1(7-35)-GAm(1-46)-NH2 [Comparative Example 4, reference compound]
Insulin secretion capacity (% of control) ([2]; MIN 6 cells, 15 mM glucose): 18% | EC50 ([2]; MIN 6 cells, 15 mM glucose, concentration for 50% of maximum activity of native GLP-1 at 1000 pM, read-out: EC50 value (nM), insulin secretion capacity): > 1 nM | Insulin secretion capacity (activity) compared with native GLP-1, in words [2]: remarkably impaired; also recorded: remarkably decreased | Remaining rate in plasma after 48 hours (%) [3, 5]: 105%
